# Key:
# Type in all cases: functional
# Pseudomonas aeruginosa [1] = assay: Antibacterial activity against Pseudomonas aeruginosa MTCC 424 at 500 ug/ml after 18 hr by cup-plate method; details: MTCC 424, 18 h, read-out: DIZ
# Bacillus pumilus [2] = assay: Antibacterial activity against Bacillus pumilus MTCC 1456 at 1000 ug/ml after 18 hr by cup-plate method; details: MTCC 1456, 18 h, read-out: DIZ
# Aspergillus niger [3] = assay: Antifungal activity against Aspergillus niger MTCC 2546 at 1500 ug/ml after 18 hr by cup-plate method; details: MTCC 2546, 18 h, read-out: DIZ
# Aspergillus niger [4] = assay: Antifungal activity against Aspergillus niger MTCC 2546 at 500 ug/ml after 18 hr by cup-plate method; details: MTCC 2546, 18 h, read-out: DIZ
# Micrococcus luteus [5] = assay: Antibacterial activity against Micrococcus luteus MTCC 1538 at 1500 ug/ml after 18 hr by cup-plate method; details: MTCC 1538, 18 h, read-out: DIZ
# Pseudomonas fluorescens [6] = assay: Antibacterial activity against Pseudomonas fluorescens MTCC 2421 after 24 hr by broth dilution method; details: MTCC 2421, 24 h
# Bacillus subtilis [7] = assay: Antibacterial activity against Bacillus subtilis MTCC 441 after 24 hr by broth dilution method; details: MTCC 441, 24 h
# Pseudomonas aeruginosa [8] = assay: Antibacterial activity against Pseudomonas aeruginosa MTCC 424 at 100 ug/ml after 18 hr by cup-plate method; details: MTCC 424, 18 h, read-out: DIZ
# Aspergillus niger [9] = assay: Antifungal activity against Aspergillus niger MTCC 2546 at 1000 ug/ml after 18 hr by cup-plate method; details: MTCC 2546, 18 h, read-out: DIZ
# Pseudomonas aeruginosa [10] = assay: Antibacterial activity against Pseudomonas aeruginosa MTCC 424 at 1000 ug/ml after 18 hr by cup-plate method; details: MTCC 424, 18 h, read-out: DIZ
# Micrococcus luteus [11] = assay: Antibacterial activity against Micrococcus luteus MTCC 1538 at 100 ug/ml after 18 hr by cup-plate method; details: MTCC 1538, 18 h, read-out: DIZ
# Pseudomonas fluorescens [12] = assay: Antibacterial activity against Pseudomonas fluorescens MTCC 2421 at 500 ug/ml after 18 hr by cup-plate method; details: MTCC 2421, 18 h, read-out: DIZ
# Bacillus pumilus [13] = assay: Antibacterial activity against Bacillus pumilus MTCC 1456 at 500 ug/ml after 18 hr by cup-plate method; details: MTCC 1456, 18 h, read-out: DIZ
# Bacillus pumilus [14] = assay: Antibacterial activity against Bacillus pumilus MTCC 1456 at 1500 ug/ml after 18 hr by cup-plate method; details: MTCC 1456, 18 h, read-out: DIZ
# Bacillus pumilus [15] = assay: Antibacterial activity against Bacillus pumilus MTCC 1456 after 24 hr by broth dilution method; details: MTCC 1456, 24 h
# Escherichia coli [16] = assay: Antibacterial activity against Escherichia coli MTCC 1573 at 500 ug/ml after 18 hr by cup-plate method; details: MTCC 1573, 18 h, read-out: DIZ
# Micrococcus luteus [17] = assay: Antibacterial activity against Micrococcus luteus MTCC 1538 at 500 ug/ml after 18 hr by cup-plate method; details: MTCC 1538, 18 h, read-out: DIZ
# Staphylococcus aureus [18] = assay: Antibacterial activity against Staphylococcus aureus MTCC 1430 after 24 hr by broth dilution method; details: MTCC 1430, 24 h
# Bacillus subtilis [19] = assay: Antibacterial activity against Bacillus subtilis MTCC 441 at 1000 ug/ml after 18 hr by cup plate method; details: MTCC 441, 18 h, read-out: DIZ
# Escherichia coli [20] = assay: Antibacterial activity against Escherichia coli MTCC 1573 after 24 hr by broth dilution method; details: MTCC 1573, 24 h
# Micrococcus luteus [21] = assay: Antibacterial activity against Micrococcus luteus MTCC 1538 at 200 ug/ml after 18 hr by cup-plate method; details: MTCC 1538, 18 h, read-out: DIZ
# Aspergillus niger [22] = assay: Antifungal activity against Aspergillus niger MTCC 2546 at 100 ug/ml after 18 hr by cup-plate method; details: MTCC 2546, 18 h, read-out: DIZ
# Staphylococcus aureus [23] = assay: Antibacterial activity against Staphylococcus aureus MTCC 1430 at 1000 ug/ml after 18 hr by cup-plate method; details: MTCC 1430, 18 h, read-out: DIZ
# Escherichia coli [24] = assay: Antibacterial activity against Escherichia coli MTCC 1573 at 1000 ug/ml after 18 hr by cup-plate method; details: MTCC 1573, 18 h, read-out: DIZ
# Staphylococcus aureus [25] = assay: Antibacterial activity against Staphylococcus aureus MTCC 1430 at 200 ug/ml after 18 hr by cup-plate method; details: MTCC 1430, 18 h, read-out: DIZ
# Escherichia coli [26] = assay: Antibacterial activity against Escherichia coli MTCC 1573 at 200 ug/ml after 18 hr by cup-plate method; details: MTCC 1573, 18 h, read-out: DIZ
# Bacillus pumilus [27] = assay: Antibacterial activity against Bacillus pumilus MTCC 1456 at 100 ug/ml after 18 hr by cup-plate method; details: MTCC 1456, 18 h, read-out: DIZ
# Staphylococcus aureus [28] = assay: Antibacterial activity against Staphylococcus aureus MTCC 1430 at 100 ug/ml after 18 hr by cup-plate method; details: MTCC 1430, 18 h, read-out: DIZ
# Pseudomonas aeruginosa [29] = assay: Antibacterial activity against Pseudomonas aeruginosa MTCC 424 after 24 hr by broth dilution method; details: MTCC 424, 24 h
# Pseudomonas aeruginosa [30] = assay: Antibacterial activity against Pseudomonas aeruginosa MTCC 424 at 1500 ug/ml after 18 hr by cup-plate method; details: MTCC 424, 18 h, read-out: DIZ
# Escherichia coli [31] = assay: Antibacterial activity against Escherichia coli MTCC 1573 at 100 ug/ml after 18 hr by cup-plate method; details: MTCC 1573, 18 h, read-out: DIZ
# Pseudomonas fluorescens [32] = assay: Antibacterial activity against Pseudomonas fluorescens MTCC 2421 at 1000 ug/ml after 18 hr by cup-plate method; details: MTCC 2421, 18 h, read-out: DIZ
# Pseudomonas aeruginosa [33] = assay: Antibacterial activity against Pseudomonas aeruginosa MTCC 424 at 200 ug/ml after 18 hr by cup-plate method; details: MTCC 424, 18 h, read-out: DIZ
# Micrococcus luteus [34] = assay: Antibacterial activity against Micrococcus luteus MTCC 1538 at 1000 ug/ml after 18 hr by cup-plate method; details: MTCC 1538, 18 h, read-out: DIZ
# Penicillium chrysogenum [35] = assay: Antifungal activity against Penicillium chrysogenum MTCC 161 at 200 ug/ml after 18 hr by cup-plate method; details: MTCC 161, 18 h, read-out: DIZ
# Bacillus subtilis [36] = assay: Antibacterial activity against Bacillus subtilis MTCC 441 at 100 ug/ml after 18 hr by cup plate method; details: MTCC 441, 18 h, read-out: DIZ
# Penicillium chrysogenum [37] = assay: Antifungal activity against Penicillium chrysogenum MTCC 161 at 1000 ug/ml after 18 hr by cup-plate method; details: MTCC 161, 18 h, read-out: DIZ
# Pseudomonas fluorescens [38] = assay: Antibacterial activity against Pseudomonas fluorescens MTCC 2421 at 1500 ug/ml after 18 hr by cup-plate method; details: MTCC 2421, 18 h, read-out: DIZ
# Bacillus pumilus [39] = assay: Antibacterial activity against Bacillus pumilus MTCC 1456 at 200 ug/ml after 18 hr by cup-plate method; details: MTCC 1456, 18 h, read-out: DIZ
# Penicillium chrysogenum [40] = assay: Antifungal activity against Penicillium chrysogenum MTCC 161 after 24 hr by broth dilution method; details: MTCC 161, 24 h
# Pseudomonas fluorescens [41] = assay: Antibacterial activity against Pseudomonas fluorescens MTCC 2421 at 100 ug/ml after 18 hr by cup-plate method; details: MTCC 2421, 18 h, read-out: DIZ
# Penicillium chrysogenum [42] = assay: Antifungal activity against Penicillium chrysogenum MTCC 161 at 100 ug/ml after 18 hr by cup-plate method; details: MTCC 161, 18 h, read-out: DIZ
# Escherichia coli [43] = assay: Antibacterial activity against Escherichia coli MTCC 1573 at 1500 ug/ml after 18 hr by cup-plate method; details: MTCC 1573, 18 h, read-out: DIZ
# Bacillus subtilis [44] = assay: Antibacterial activity against Bacillus subtilis MTCC 441 at 1500 ug/ml after 18 hr by cup plate method; details: MTCC 441, 18 h, read-out: DIZ
# Aspergillus niger [45] = assay: Antifungal activity against Aspergillus niger MTCC 2546 at 200 ug/ml after 18 hr by cup-plate method; details: MTCC 2546, 18 h, read-out: DIZ
# Pseudomonas fluorescens [46] = assay: Antibacterial activity against Pseudomonas fluorescens MTCC 2421 at 200 ug/ml after 18 hr by cup-plate method; details: MTCC 2421, 18 h, read-out: DIZ
# Staphylococcus aureus [47] = assay: Antibacterial activity against Staphylococcus aureus MTCC 1430 at 1500 ug/ml after 18 hr by cup-plate method; details: MTCC 1430, 18 h, read-out: DIZ
# Bacillus subtilis [48] = assay: Antibacterial activity against Bacillus subtilis MTCC 441 at 200 ug/ml after 18 hr by cup plate method; details: MTCC 441, 18 h, read-out: DIZ
# Bacillus subtilis [49] = assay: Antibacterial activity against Bacillus subtilis MTCC 441 at 500 ug/ml after 18 hr by cup plate method; details: MTCC 441, 18 h, read-out: DIZ
# Penicillium chrysogenum [50] = assay: Antifungal activity against Penicillium chrysogenum MTCC 161 at 500 ug/ml after 18 hr by cup-plate method; details: MTCC 161, 18 h, read-out: DIZ
# Aspergillus niger [51] = assay: Antifungal activity against Aspergillus niger MTCC 2546 after 24 hr by broth dilution method; details: MTCC 2546, 24 h
# Penicillium chrysogenum [52] = assay: Antifungal activity against Penicillium chrysogenum MTCC 161 at 1500 ug/ml after 18 hr by cup-plate method; details: MTCC 161, 18 h, read-out: DIZ
# Micrococcus luteus [53] = assay: Antibacterial activity against Micrococcus luteus MTCC 1538 after 24 hr by broth dilution method; details: MTCC 1538, 24 h
# Staphylococcus aureus [54] = assay: Antibacterial activity against Staphylococcus aureus MTCC 1430 at 500 ug/ml after 18 hr by cup-plate method; details: MTCC 1430, 18 h, read-out: DIZ
smiles,measurement,setting,value
Clc1ccc(/N=C/c2cccs2)cc1,zone of inhibition at 500 µg/mL,Pseudomonas aeruginosa [1],16 mm
same,zone of inhibition at 1000 µg/mL,Bacillus pumilus [2],18 mm
same,zone of inhibition at 1500 µg/mL,Aspergillus niger [3],18 mm
same,zone of inhibition at 500 µg/mL,Aspergillus niger [4],12 mm
same,zone of inhibition at 1500 µg/mL,Micrococcus luteus [5],24 mm
same,MIC,Pseudomonas fluorescens [6],300 µg/mL
same,MIC,Bacillus subtilis [7],400 µg/mL
same,zone of inhibition at 100 µg/mL,Pseudomonas aeruginosa [8],10 mm
same,zone of inhibition at 1000 µg/mL,Aspergillus niger [9],17 mm
same,zone of inhibition at 1000 µg/mL,Pseudomonas aeruginosa [10],17 mm
same,zone of inhibition at 100 µg/mL,Micrococcus luteus [11],11 mm
same,zone of inhibition at 500 µg/mL,Pseudomonas fluorescens [12],16 mm
same,zone of inhibition at 500 µg/mL,Bacillus pumilus [13],17 mm
same,zone of inhibition at 1500 µg/mL,Bacillus pumilus [14],20 mm
same,MIC,Bacillus pumilus [15],200 µg/mL
same,zone of inhibition at 500 µg/mL,Escherichia coli [16],16 mm
same,zone of inhibition at 500 µg/mL,Micrococcus luteus [17],18 mm
same,MIC,Staphylococcus aureus [18],300 µg/mL
same,zone of inhibition at 1000 µg/mL,Bacillus subtilis [19],18 mm
same,MIC,Escherichia coli [20],200 µg/mL
same,zone of inhibition at 200 µg/mL,Micrococcus luteus [21],15 mm
same,zone of inhibition at 100 µg/mL,Aspergillus niger [22],10 mm
same,zone of inhibition at 1000 µg/mL,Staphylococcus aureus [23],16 mm
same,zone of inhibition at 1000 µg/mL,Escherichia coli [24],19 mm
same,zone of inhibition at 200 µg/mL,Staphylococcus aureus [25],13 mm
same,zone of inhibition at 200 µg/mL,Escherichia coli [26],15 mm
same,zone of inhibition at 100 µg/mL,Bacillus pumilus [27],13 mm
same,zone of inhibition at 100 µg/mL,Staphylococcus aureus [28],12 mm
same,MIC,Pseudomonas aeruginosa [29],300 µg/mL
same,zone of inhibition at 1500 µg/mL,Pseudomonas aeruginosa [30],19 mm
same,zone of inhibition at 100 µg/mL,Escherichia coli [31],13 mm
same,zone of inhibition at 1000 µg/mL,Pseudomonas fluorescens [32],18 mm
same,zone of inhibition at 200 µg/mL,Pseudomonas aeruginosa [33],13 mm
same,zone of inhibition at 1000 µg/mL,Micrococcus luteus [34],20 mm
same,zone of inhibition at 200 µg/mL,Penicillium chrysogenum [35],14 mm
same,zone of inhibition at 100 µg/mL,Bacillus subtilis [36],11 mm
same,zone of inhibition at 1000 µg/mL,Penicillium chrysogenum [37],17 mm
same,zone of inhibition at 1500 µg/mL,Pseudomonas fluorescens [38],20 mm
same,zone of inhibition at 200 µg/mL,Bacillus pumilus [39],15 mm
same,MIC,Penicillium chrysogenum [40],300 µg/mL
same,zone of inhibition at 100 µg/mL,Pseudomonas fluorescens [41],11 mm
same,zone of inhibition at 100 µg/mL,Penicillium chrysogenum [42],13 mm
same,zone of inhibition at 1500 µg/mL,Escherichia coli [43],20 mm
same,zone of inhibition at 1500 µg/mL,Bacillus subtilis [44],21 mm
same,zone of inhibition at 200 µg/mL,Aspergillus niger [45],11 mm
same,zone of inhibition at 200 µg/mL,Pseudomonas fluorescens [46],13 mm
same,zone of inhibition at 1500 µg/mL,Staphylococcus aureus [47],18 mm
same,zone of inhibition at 200 µg/mL,Bacillus subtilis [48],12 mm
same,zone of inhibition at 500 µg/mL,Bacillus subtilis [49],14 mm
same,zone of inhibition at 500 µg/mL,Penicillium chrysogenum [50],16 mm
same,MIC,Aspergillus niger [51],400 µg/mL
same,zone of inhibition at 1500 µg/mL,Penicillium chrysogenum [52],19 mm
same,MIC,Micrococcus luteus [53],400 µg/mL
same,zone of inhibition at 500 µg/mL,Staphylococcus aureus [54],15 mm

# From ChEMBL document CHEMBL3045835, “Comparative study of conventional and microwave-assisted synthesis of some Schiff bases and their potential as antimicrobial agents” (2012)
